# Laboratory results published in PubChem BioAssay (NCI).
#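 Exposure lasted 48 hours, with cells grown in 96-well plates and compounds tested at five concentrations. At the TGI there is no net growth.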
# Key:
# Experiment in all cases: NCI anticancer screen, dose series, 48 h
# U251 CNS = test system: U251 CNS
# K-562 leukemia = test system: K-562 leukemia
# UACC-257 melanoma = test system: UACC-257 melanoma
# HT29 colon = test system: HT29 colon
# OVCAR-8 ovarian = test system: OVCAR-8 ovarian
# UACC-62 melanoma = test system: UACC-62 melanoma
# SK-MEL-5 melanoma = test system: SK-MEL-5 melanoma
# ACHN renal = test system: ACHN renal
# HCT-15 colon = test system: HCT-15 colon
# NCI-H226 lung = test system: NCI-H226 lung
# 786-0 renal = test system: 786-0 renal
# SK-OV-3 ovarian = test system: SK-OV-3 ovarian
# MCF7 breast = test system: MCF7 breast
# RPMI-8226 leukemia = test system: RPMI-8226 leukemia
# T-47D breast = test system: T-47D breast
# OVCAR-5 ovarian = test system: OVCAR-5 ovarian
# MALME-3M melanoma = test system: MALME-3M melanoma
# PC-3 prostate = test system: PC-3 prostate
# SW-620 colon = test system: SW-620 colon
# HOP-62 NSCLC = test system: HOP-62 NSCLC
# SK-MEL-28 melanoma = test system: SK-MEL-28 melanoma
# HS 578T breast = test system: HS 578T breast
# EKVX NSCLC = test system: EKVX NSCLC
# UO-31 renal = test system: UO-31 renal
# HOP-92 NSCLC = test system: HOP-92 NSCLC
# TK-10 renal = test system: TK-10 renal
# SF-295 CNS = test system: SF-295 CNS
# MDA-N = test system: MDA-N
# MDA-MB-435 = test system: MDA-MB-435
# MDA-MB-231 breast = test system: MDA-MB-231 breast
# NCI-H23 lung = test system: NCI-H23 lung
# SK-MEL-2 melanoma = test system: SK-MEL-2 melanoma
# HL-60(TB) leukemia = test system: HL-60(TB) leukemia
# CAKI-1 renal = test system: CAKI-1 renal
# NCI-H460 lung = test system: NCI-H460 lung
# OVCAR-3 ovarian = test system: OVCAR-3 ovarian
# RXF 393 renal = test system: RXF 393 renal
# SR leukemia = test system: SR leukemia
# COLO 205 colon = test system: COLO 205 colon
# IGROV1 ovarian = test system: IGROV1 ovarian
# A549 NSCLC = test system: A549 NSCLC
# SNB-19 CNS = test system: SNB-19 CNS
# SF-268 CNS = test system: SF-268 CNS
# OVCAR-4 ovarian = test system: OVCAR-4 ovarian
# LOX IMVI melanoma = test system: LOX IMVI melanoma
# SN12C renal = test system: SN12C renal
# SF-539 CNS = test system: SF-539 CNS
# MOLT-4 leukemia = test system: MOLT-4 leukemia
# HCT-116 colon = test system: HCT-116 colon
# KM12 colon = test system: KM12 colon
# NCI/ADR-RES ovarian = test system: NCI/ADR-RES ovarian
# DU-145 prostate = test system: DU-145 prostate
# M14 melanoma = test system: M14 melanoma
# SNB-75 CNS = test system: SNB-75 CNS
# HCC-2998 colon = test system: HCC-2998 colon
# CCRF-CEM leukemia = test system: CCRF-CEM leukemia
# NCI-H522 lung = test system: NCI-H522 lung
smiles,measurement,setting,value
CC(C)CCC(=O)c1ccoc1,TGI,U251 CNS,> 100 µM
same,TGI,K-562 leukemia,> 100 µM
same,TGI,UACC-257 melanoma,> 100 µM
same,TGI,HT29 colon,> 100 µM
same,TGI,OVCAR-8 ovarian,> 100 µM
same,TGI,UACC-62 melanoma,> 100 µM
same,TGI,SK-MEL-5 melanoma,> 100 µM
same,TGI,ACHN renal,> 100 µM
same,TGI,HCT-15 colon,> 100 µM
same,TGI,NCI-H226 lung,> 100 µM
same,TGI,786-0 renal,> 100000 nM
same,TGI,SK-OV-3 ovarian,> 100 µM
same,TGI,MCF7 breast,> 100 µM
same,TGI,RPMI-8226 leukemia,> 100 µM
same,TGI,T-47D breast,> 100 µM
same,TGI,OVCAR-5 ovarian,> 100 µM
same,TGI,MALME-3M melanoma,> 100 µM
same,TGI,PC-3 prostate,> 100 µM
same,TGI,SW-620 colon,> 100 µM
same,TGI,HOP-62 NSCLC,> 100 µM
same,TGI,SK-MEL-28 melanoma,> 100 µM
same,TGI,HS 578T breast,> 100 µM
same,TGI,EKVX NSCLC,> 100 µM
same,TGI,UO-31 renal,> 100 µM
same,TGI,HOP-92 NSCLC,> 100 µM
same,TGI,TK-10 renal,> 100 µM
same,TGI,SF-295 CNS,> 100 µM
same,TGI,MDA-N,> 100 µM
same,TGI,MDA-MB-435,> 100 µM
same,TGI,MDA-MB-231 breast,> 100 µM
same,TGI,NCI-H23 lung,> 100 µM
same,TGI,SK-MEL-2 melanoma,> 100 µM
same,TGI,HL-60(TB) leukemia,> 100 µM
same,TGI,CAKI-1 renal,> 100 µM
same,TGI,NCI-H460 lung,> 100 µM
same,TGI,OVCAR-3 ovarian,> 100 µM
same,TGI,RXF 393 renal,> 100 µM
same,TGI,SR leukemia,> 100 µM
same,TGI,COLO 205 colon,> 100 µM
same,TGI,IGROV1 ovarian,> 100 µM
same,TGI,A549 NSCLC,> 100 µM
same,TGI,SNB-19 CNS,> 100 µM
same,TGI,SF-268 CNS,> 100 µM
same,TGI,OVCAR-4 ovarian,> 100 µM
same,TGI,LOX IMVI melanoma,> 100 µM
same,TGI,SN12C renal,> 100 µM
same,TGI,SF-539 CNS,> 100 µM
same,TGI,MOLT-4 leukemia,> 100 µM
same,TGI,HCT-116 colon,> 100 µM
same,TGI,KM12 colon,> 100 µM
same,TGI,NCI/ADR-RES ovarian,> 100 µM
same,TGI,DU-145 prostate,> 100 µM
same,TGI,M14 melanoma,> 100 µM
same,TGI,SNB-75 CNS,> 100 µM
same,TGI,HCC-2998 colon,> 100 µM
same,TGI,CCRF-CEM leukemia,> 100000 nM
COc1cc(C2c3cc4c(cc3[C@@H](Nc3ccccc3)C3COC[C@H]23)OCO4)cc(OC)c1O (stereo partly drawn),TGI,U251 CNS,16.1 µM
same,TGI,UACC-257 melanoma,50.4 µM
same,TGI,HT29 colon,45.5 µM
same,TGI,OVCAR-8 ovarian,> 100 µM
same,TGI,SK-MEL-5 melanoma,68.9 µM
same,TGI,ACHN renal,3.82 µM
same,TGI,HCT-15 colon,12.9 µM
same,TGI,786-0 renal,2300 nM
same,TGI,SK-OV-3 ovarian,> 100 µM
same,TGI,MCF7 breast,> 100 µM
same,TGI,RPMI-8226 leukemia,5.22 µM
same,TGI,T-47D breast,> 100 µM
same,TGI,OVCAR-5 ovarian,9.83 µM
same,TGI,PC-3 prostate,> 100 µM
same,TGI,SW-620 colon,> 100 µM
same,TGI,HOP-62 NSCLC,> 100 µM
same,TGI,SK-MEL-28 melanoma,39.1 µM
same,TGI,HS 578T breast,12.4 µM
same,TGI,EKVX NSCLC,> 100 µM
same,TGI,UO-31 renal,3.71 µM
same,TGI,TK-10 renal,> 100 µM
same,TGI,SF-295 CNS,3.36 µM
same,TGI,MDA-N,> 100 µM
same,TGI,MDA-MB-231 breast,24.5 µM
same,TGI,NCI-H460 lung,5 µM
same,TGI,NCI-H522 lung,25.8 µM
same,TGI,SR leukemia,16.5 µM
same,TGI,COLO 205 colon,70.7 µM
same,TGI,IGROV1 ovarian,> 100 µM
same,TGI,A549 NSCLC,14 µM
same,TGI,SNB-19 CNS,> 100 µM
same,TGI,SF-268 CNS,> 100 µM
same,TGI,OVCAR-4 ovarian,> 100 µM
same,TGI,SN12C renal,54.3 µM
same,TGI,SF-539 CNS,4.35 µM
same,TGI,HCT-116 colon,19.8 µM
same,TGI,KM12 colon,32.5 µM
same,TGI,NCI/ADR-RES ovarian,> 100 µM
same,TGI,M14 melanoma,> 100 µM
same,TGI,SNB-75 CNS,11.9 µM
same,TGI,HCC-2998 colon,> 100 µM
same,TGI,CCRF-CEM leukemia,2150 nM
